Assay results published in the pKa sets of Baltruschat and Czodrowski (2020).

Conditions: basic group

Q: With `Cc1ccc2ccc3cccnc3c2n1` as the compound, how does the pKa read?
A: 5.36

Q: For `COCCN(C)c1ccccc1`, which pKa is on record?
A: 4.81

Q: With `COc1ccc(C(=N)c2ccccc2)c(OC)c1` as the compound, how does the pKa read?
A: 8.3

Q: With `CCCCCc1cccnn1` as the compound, how does the pKa read?
A: 3.7

Q: For `Cn1cc[nH+]c1-c1ccccn1`, which pKa is on record?
A: 0.4

Q: For `SCc1ncc[nH]1`, which pKa is on record?
A: 6.37

Q: For `CCC(C)NC(C)CC` (stereo not given), which pKa is on record?
A: 10.9

Q: Which pKa does the source give for `CSc1cnc2ccccc2c1` here?
A: 3.88

Q: Which pKa does the source give for `COc1nc2ccccc2c2ccccc12` here?
A: 2.38

Q: With `C[N-]C(=O)Oc1ccc2c(c1)[C@@]1(C)CCN(C)[C@H]1N2C` as the compound, how does the pKa read?
A: 12.2

Q: With `COc1cccc(Nc2ccccc2)c1` as the compound, how does the pKa read?
A: 0.37

Q: For `C[C@@H]1N[C@@H]1C`, which pKa is on record?
A: 5.34

Q: With `O=[N+]([O-])c1ccc2[nH]ncc2c1` as the compound, how does the pKa read?
A: 0.13

Q: For `CC[NH+](CC)CCCCCCCC(C)Nc1c2ccc(Cl)cc2nc2ccc(OC)cc12` (stereo not given), which pKa is on record?
A: 8

Q: Which pKa does the source give for `CCSC(=N)c1ccccc1` here?
A: 6.05

Q: Which pKa does the source give for `Cn1cnc2ncnc([O-])c21` here?
A: 8.8

Q: Which pKa does the source give for `Cc1cc(C)c2cccc(C)c2n1` here?
A: 4.48

Q: Which pKa does the source give for `Nc1cccc([NH3+])c1` here?
A: 2.46

Q: For `NCCSCCN`, which pKa is on record?
A: 9.64

Q: With `N#CCN` as the compound, how does the pKa read?
A: 5.37

Q: Which pKa does the source give for `Cc1c(O)c(=O)n(-c2ccccc2)n1C` here?
A: -0.22

Q: Which pKa does the source give for `Oc1c(Cl)cc(Cl)c2cccnc12` here?
A: 2.89

Q: With `NCCCCO` as the compound, how does the pKa read?
A: 10.3

Q: For `c1ccc2c(c1)CCCN2`, which pKa is on record?
A: 4.96

Q: With `c1ccc(-c2ccc[nH+]c2)nc1` as the compound, how does the pKa read?
A: 1.52

Q: With `CC1CNCCN1` (stereo not given) as the compound, how does the pKa read?
A: 9.9

Q: With `Cc1c(C(C)C)c(=O)n(-c2ccccc2)n1C` as the compound, how does the pKa read?
A: 2.4

Q: Which pKa does the source give for `Nc1cccc2nc3ccccc3cc12` here?
A: 6.04

Q: Which pKa does the source give for `CC1CCCN(C(C)C=C(c2cccs2)c2cccs2)C1` (stereo not given) here?
A: 8.28

Q: For `C(=C\c1ccncc1)/c1ccncc1`, which pKa is on record?
A: 5.82

Q: Which pKa does the source give for `C[NH+](C)c1ccc(/N=N/c2ccncc2)cc1` here?
A: 3.4

Q: Which pKa does the source give for `NCc1cccc(S(N)(=O)=O)c1` here?
A: 8.55

Q: For `N#CC(C#N)=NNc1ccccc1C(=O)O`, which pKa is on record?
A: -0.96

Q: Which pKa does the source give for `CC[NH+](CC)CCCCC(C)Nc1c2ccc(Cl)cc2nc2ccc(OC)cc12` (stereo not given) here?
A: 7.74

Q: With `Clc1ccc(C/C(=C\CN2CCCC2)c2ccccc2)cc1` as the compound, how does the pKa read?
A: 8.77

Q: For `CCN(CC)CCCN(CC)CC`, which pKa is on record?
A: 10.2

Q: For `CC1CC[C@H](O)[C@@H](N)C1` (stereo not given in full), which pKa is on record?
A: 9.5

Q: With `Cc1ccccc1CN` as the compound, how does the pKa read?
A: 9.23

Q: With `Cc1[nH]cnc1CSCCNC(=N)NCCCc1c[nH]cn1` as the compound, how does the pKa read?
A: 11.6

Q: Which pKa does the source give for `COc1ccc(CN)cc1` here?
A: 9.67

Q: Which pKa does the source give for `CC1=C(CC(C)[NH2+]CC(O)c2ccc(N)cc2)CCC1(C)C` (stereo not given) here?
A: 3.69

Q: For `c1nc(Cc2c[nH]c(Cc3nc(Cc4cnc[nH]4)c[nH]3)[nH+]2)c[nH]1`, which pKa is on record?
A: 6.66

Q: For `O=C(CN1CCCCC1)NCc1ccccc1`, which pKa is on record?
A: 7.71

Q: Which pKa does the source give for `C[NH+](C)CCCNc1c2ccccc2nc2cccc([N+](=O)[O-])c12` here?
A: 6.2

Q: For `CCN(C#N)CC`, which pKa is on record?
A: -2

Q: With `O[C@H]1[C@H](O)[C@@H](n2cnc3ccccc32)OC[C@H]1O` as the compound, how does the pKa read?
A: 4.15

Q: Which pKa does the source give for `CN1CCCC2CCN=C21` (stereo not given) here?
A: 11.5

Q: With `Cc1cccc2cccnc12` as the compound, how does the pKa read?
A: 4.87

Q: With `CCCC[NH2+]CC/C(N)=N/O` as the compound, how does the pKa read?
A: 3.75

Q: For `Cc1cnc([C@@H](O)[C@H](O)[C@H](O)CO)cn1`, which pKa is on record?
A: 1.4

Q: For `CNC(=O)C1CCCCN1` (stereo not given), which pKa is on record?
A: 8.8

Q: With `NCCc1ccncc1` as the compound, how does the pKa read?
A: 9.37

Q: Which pKa does the source give for `O=Cc1cccnc1` here?
A: 3.73

Q: Which pKa does the source give for `Cc1ccc(Nc2ccccc2)cc1` here?
A: 1.16

Q: With `Nc1cccc2ncccc12` as the compound, how does the pKa read?
A: 5.46

Q: For `Nc1n[nH]c(N)c1/N=N/c1ccccc1O`, which pKa is on record?
A: 3.51

Q: Which pKa does the source give for `CCCCCCCN(CCCCCCC)c1ccccc1` here?
A: 3.33

Q: For `C=C[C@]1(O)C[NH+]2CC[C@H]1C[C@@H]2[C@@H](O)c1ccnc2ccc(OC)cc12`, which pKa is on record?
A: 4.12

Q: Which pKa does the source give for `CC(Br)(CN)[N+](=O)[O-]` (stereo not given) here?
A: 6.15

Q: Which pKa does the source give for `C1CSCN1` here?
A: 6.31

Q: With `[O-][n+]1ccc2ccccc2c1` as the compound, how does the pKa read?
A: 1.01

Q: With `CCNc1ccc(C)cc1` as the compound, how does the pKa read?
A: 5.72

Q: With `c1ncc2cn[nH]c2n1` as the compound, how does the pKa read?
A: 2.84

Q: For `Nc1nc(N)nc(N(CCO)CCO)n1`, which pKa is on record?
A: 5.1

Q: With `CCC(C)(C)NC(C)(C)CC` as the compound, how does the pKa read?
A: 11.6

Q: For `CC(C)Cc1ccc(O)c(CN(C)C)c1`, which pKa is on record?
A: 8.51

Q: For `CCCn1ccnc1C=O`, which pKa is on record?
A: 5.15

Q: Which pKa does the source give for `CC(=O)/C(CN1CCCCC1)=N\[O-]` here?
A: 10.7

Q: Which pKa does the source give for `CN(C)CCCO` here?
A: 9.76

Q: Which pKa does the source give for `O=C([O-])CC(c1ncc[nH]1)c1[nH]cc[nH+]1` here?
A: 4.62

Q: With `Nc1nc[nH+]c2c1ncn2CCOCP(=O)(O)O` as the compound, how does the pKa read?
A: -0.35

Q: Which pKa does the source give for `Cc1cc(-c2cc(C)[nH+][nH]2)[nH]n1` here?
A: 0.4

Q: For `[O-]c1c(Cl)cc(Cl)cc1CN1CCOCC1`, which pKa is on record?
A: 8.85

Q: For `CCOc1ccc(/N=C/N(C)C)cc1`, which pKa is on record?
A: 9.24

Q: Which pKa does the source give for `CCCCCN(CC(C)O)CC(O)CC` (stereo not given) here?
A: 9.1

Q: With `C[C@H]([NH3+])[C@@H](C)N` as the compound, how does the pKa read?
A: 6.84

Q: Which pKa does the source give for `CCN(CC)C(C)O` (stereo not given) here?
A: 10.2

Q: For `COc1ccc(CN)cc1OC`, which pKa is on record?
A: 9.39

Q: Which pKa does the source give for `CC(C)N1C2CCCC21` (stereo not given) here?
A: 8.31

Q: With `CN1CCNCC1` as the compound, how does the pKa read?
A: 9.6

Q: For `COc1cc(S(C)=O)ccc1-c1nc2[nH]ncc2[nH]1` (stereo not given), which pKa is on record?
A: 3.8

Q: With `NC(=O)N/N=C/c1ncnc2nc[nH]c12` as the compound, how does the pKa read?
A: 2.1

Q: With `CC1=[NH+]c2ccccc2/C1=C/C=C1\Cc2ccccc2N1C` as the compound, how does the pKa read?
A: 1.22

Q: For `O=C(c1ccccc1)N(O)c1ccccc1`, which pKa is on record?
A: -2.08

Q: For `O=S(=O)(Nc1ncccn1)c1ccccc1`, which pKa is on record?
A: 0.15

Q: With `SCCNc1ccccc1` as the compound, how does the pKa read?
A: 3.78

Q: Which pKa does the source give for `Cn1c(CBr)nc2c(O)ccc(O)c21` here?
A: 3.99

Q: For `C1CCN2C[C@@H]3C[C@@H](CN4CCCC[C@@H]34)[C@H]2C1`, which pKa is on record?
A: 11.3

Q: Which pKa does the source give for `CCN(CC)CC(=O)[O-]` here?
A: 10.5

Q: For `CCOc1cccc(C(=O)N[C@@H]2C[C@H]3CC[C@@H](C2)N3Cc2ccccc2)c1OC`, which pKa is on record?
A: 8.78
